Experimental data from patent US20060069132A1, “Azolecarboxamide herbicides” (priority 2004, published 2006).

What was measured:
[1] = tested on: rice; experiment: Test B flooded paddy test; type: in vivo, Oryza sativa; settings: 1000 g ai/ha, scale 0 to 100 (0 no effect, 100 complete control)
Experimental: (§1) At the same time, plants selected from these crop and weed species and also blackgrass (Alopecurus myosuroides Huds.), wheat (Triticum aestivum L.) and wild oat (Avena fatua L.) were treated with postemergence applications of test chemicals formulated in the same manner. Plants ranged in height from 2 to 18 cm (1- to 4-leaf stage) for postemergence treatments. Plant species in the flooded paddy test consisted of rice (Oryza sativa L.), small flower umbrella sedge (Cyperus difformis L.), ducksalad (Heteranthera limosa (Sw.) Willd.) and barnyardgrass (Echinochloa crus-galli (L.) Beauv.) grown to the 2-leaf stage for testing. Treated plants and controls were maintained in a greenhouse for 13 to 15 days, after which time all species were compared to controls and visually evaluated. Plant response ratings, summarized in Table B, are based on a scale of 0 to 100 where 0 is no effect and 100 is complete control. A dash (-) response means no test result.

[2] = tested on: cocklebur; experiment: Test B pre-/postemergence herbicide test; type: in vivo, Xanthium strumarium; settings: for Cocklebur plant response rating: scale 0 (no effect) to 100 (complete control)
From the text: (§2) Seeds selected from barnyardgrass (Echinochloa crus-galli (L.) Beauv.), Surinam grass (Urochloa decumbens (Staph) R. D. Webster, previously named Brachiaria decumbens Stapf), cocklebur (Xanthium strumarium L.), corn (Zea mays L.), large crabgrass (Digitaria sanguinalis (L.) Scop.), giant foxtail (Setaria faberi Herim.), lambsquarters (Chenopodium album L.), morningglory (Ipomoea coccinea L.), pigweed (Amaranthus retroflexus L.), rice (Oryza sativa L.) and velvetleaf (Abutilon theophrasti Medik.) were planted and treated preemergence with test chemicals formulated in a non-phytotoxic solvent mixture which included a surfactant.
as §1

[3] = tested on: Surinam grass; experiment: Test B pre-/postemergence herbicide test; type: in vivo, Urochloa decumbens; settings: for Surinam Grass plant response rating: scale 0 (no effect) to 100 (complete control)
From the text: as §2, §1

[4] = tested on: barnyardgrass; experiment: Test B pre-/postemergence herbicide test; type: in vivo, Echinochloa crus-galli; settings: for Barnyardgrass plant response rating: scale 0 (no effect) to 100 (complete control)
From the text: as §2, §1

[5] = tested on: barnyardgrass; experiment: Test B flooded paddy test; type: in vivo, Echinochloa crus-galli; settings: 1000 g ai/ha, scale 0 to 100 (0 no effect, 100 complete control)
Experimental: as §1

[6] = tested on: lambsquarters; experiment: Test B pre-/postemergence herbicide test; type: in vivo, Chenopodium album; settings: scale 0 (no effect) to 100 (complete control)
From the text: as §2, §1

[7] = tested on: pigweed; experiment: Test B pre-/postemergence herbicide test; type: in vivo, Amaranthus retroflexus; settings: for Pigweed plant response rating: scale 0 (no effect) to 100 (complete control)
From the text: as §2, §1

[8] = tested on: corn; experiment: Test B pre-/postemergence herbicide test; type: in vivo, Zea mays; settings: for Corn plant response rating: scale 0 (no effect) to 100 (complete control)
From the text: as §2, §1

[9] = tested on: wild oat; experiment: Test B postemergence herbicide test; type: in vivo, Avena fatua; settings: scale 0 (no effect) to 100 (complete control)
Experimental: as §1

[10] = tested on: giant foxtail; experiment: Test B pre-/postemergence herbicide test; type: in vivo, Setaria faberi; settings: for Foxtail, Giant plant response rating: scale 0 (no effect) to 100 (complete control)
From the text: as §2, §1

[11] = tested on: wheat; experiment: Test B postemergence herbicide test; type: in vivo, Triticum aestivum; design: key to Wheat plant response rating: 0 = no effect, 100 = complete control
Experimental: as §1

[12] = tested on: ducksalad; experiment: Test B flooded paddy test; type: in vivo, Heteranthera limosa; settings: 1000 g ai/ha, scale 0 to 100 (0 no effect, 100 complete control)
Experimental: as §1

[13] = tested on: velvetleaf; experiment: Test B pre-/postemergence herbicide test; type: in vivo, Abutilon theophrasti; settings: for Velvetleaf plant response rating: scale 0 (no effect) to 100 (complete control)
From the text: as §2, §1

[14] = tested on: blackgrass; experiment: Test B postemergence herbicide test; type: in vivo, Alopecurus myosuroides; settings: scale 0 (no effect) to 100 (complete control)
Experimental: as §1

[15] = tested on: large crabgrass; experiment: Test B pre-/postemergence herbicide test; type: in vivo, Digitaria sanguinalis; settings: for Crabgrass, Large plant response rating: scale 0 (no effect) to 100 (complete control)
From the text: as §2, §1

[16] = tested on: small flower umbrella sedge; experiment: Test B flooded paddy test; type: in vivo, Cyperus difformis; settings: 1000 g ai/ha, scale 0 to 100 (0 no effect, 100 complete control)
Experimental: as §1

[17] = tested on: morningglory; experiment: Test B pre-/postemergence herbicide test; type: in vivo, Ipomoea coccinea; settings: for Morningglory plant response rating: scale 0 (no effect) to 100 (complete control)
From the text: as §2, §1

[18] = tested on: velvetleaf; experiment: Test A pre-/postemergence herbicide test; type: in vivo, Abutilon theophrasti
From the text: (§3) Seeds of plant species selected from barnyardgrass (Echinochloa crus-galli (L.) Beauv.), downy bromegrass (Bromus tectorum L.), large crabgrass (Digitaria sanguinalis (L.) Scop.), giant foxtail (Setaria faberi Herrm.), morningglory (Ipomoea spp.), redroot pigweed (Amaranthus retroflexus L.) and velvetleaf (Abutilon theophrasti Medik.) were planted into a sandy loam soil and treated preemergence with a directed soil spray using test chemicals formulated in a non-phytotoxic solvent mixture which included a surfactant. At the same time plants selected from these species were also treated postemergence by spraying to runoff with test chemicals formulated.
(§4) Plants ranged in height from 2 to 10 cm and were in the one- to two-leaf stage for the postemergence treatment. Treated plants and untreated controls were maintained in a greenhouse for approximately ten days, after which time all treated plants were compared to untreated controls and visually evaluated for injury. Plant response ratings, summarized in Table A, are based on a 0 to 100 scale where 0 is no effect and 100 is complete control. A dash (-) response means no test results.

[19] = tested on: barnyardgrass; experiment: Test A pre-/postemergence herbicide test; type: in vivo, Echinochloa crus-galli
From the text: as §3, §4

[20] = tested on: large crabgrass; experiment: Test A pre-/postemergence herbicide test; type: in vivo, Digitaria sanguinalis
From the text: as §3, §4

[21] = tested on: giant foxtail; experiment: Test A pre-/postemergence herbicide test; type: in vivo, Setaria faberi
From the text: as §3, §4

[22] = tested on: morningglory; experiment: Test A pre-/postemergence herbicide test; type: in vivo, Ipomoea spp.
From the text: as §3, §4

[23] = tested on: redroot pigweed; experiment: Test A pre-/postemergence herbicide test; type: in vivo, Amaranthus retroflexus
From the text: as §3, §4

[24] = 125 g ai/ha, 0 is no effect, 100 is complete control, preemergence
[25] = 125 g ai/ha, visual rating, postemergence
[26] = Postemergence, 125 g ai/ha, 0 to 100 scale, 0 no effect, 100 complete control
[27] = Postemergence, 500 g ai/ha, 0 to 100 scale, 0 no effect, 100 complete control
[28] = preemergence, 125 g ai/ha, visual injury, 0 to 100 scale (0 no effect, 100 complete control)
[29] = preemergence, 500 g ai/ha, visual injury, 0 to 100 scale (0 no effect, 100 complete control)

## CCOC(=O)c1cccc(NC(=O)c2nn(C(C)C)nc2C)c1 [Compound 397]
[1]
  Rice plant response rating: 10
[2]; [24]
  Plant response rating (0 to 100 scale), Cocklebur: 0
[2]; [25]
  Cocklebur plant response rating: 0
[2]; Postemergence, 500 g ai/ha
  Cocklebur plant response rating: 0
[3]; [24]
  Plant response rating (0 to 100 scale), Surinam Grass: 0
[3]; [25]
  Surinam Grass plant response rating: 10
[3]; Postemergence, 500 g ai/ha
  Surinam Grass plant response rating: 10
[4]; [24]
  Plant response rating (0 to 100 scale), Barnyardgrass: 0
[4]; [25]
  Barnyardgrass plant response rating: 0
[4]; Postemergence, 500 g ai/ha
  Barnyardgrass plant response rating: 0
[5]
  Barnyardgrass plant response rating: 0
[6]; [25]
  Lambsquarters plant response rating: 0
[6]; Postemergence, 500 g ai/ha
  Lambsquarters plant response rating: 0
[7]; [24]
  Plant response rating (0 to 100 scale), Pigweed: 0
[7]; [25]
  Pigweed plant response rating: 0
[7]; Postemergence, 500 g ai/ha
  Pigweed plant response rating: 0
[8]; [24]
  Plant response rating (0 to 100 scale), Corn: 0
[8]; [25]
  Corn plant response rating: 0
[8]; Postemergence, 500 g ai/ha
  Corn plant response rating: 10
[9]; [25]
  Oat, Wild plant response rating: 0
[9]; Postemergence, 500 g ai/ha
  Oat, Wild plant response rating: 0
[10]; [24]
  Plant response rating (0 to 100 scale), Foxtail, Giant: 0
[10]; [25]
  Foxtail, Giant plant response rating: 10
[10]; Postemergence, 500 g ai/ha
  Foxtail, Giant plant response rating: 40
[11]; 125 g ai/ha, visual rating, scale 0 (no effect) to 100 (complete control), postemergence
  Wheat plant response rating: 0
[11]; 500 g ai/ha, scale 0 to 100, 0 no effect, 100 complete control, preemergence
  Wheat plant response rating: 0
[11]; Postemergence, 500 g ai/ha, scale 0 (no effect) to 100 (complete control)
  Wheat plant response rating: 10
[12]
  Ducksalad plant response rating: 0
[13]; [24]
  Plant response rating (0 to 100 scale), Velvetleaf: 0
[13]; [25]
  Velvetleaf plant response rating: 10
[13]; Postemergence, 500 g ai/ha
  Velvetleaf plant response rating: 50
[14]; [25]
  Blackgrass plant response rating: 0
[14]; Postemergence, 500 g ai/ha
  Blackgrass plant response rating: 0
[15]; [24]
  Plant response rating (0 to 100 scale), Crabgrass, Large: 0
[15]; [25]
  Crabgrass, Large plant response rating: 0
[15]; Postemergence, 500 g ai/ha
  Crabgrass, Large plant response rating: 10
[16]
  Sedge, Umbrella plant response rating: 70
[17]; [24]
  Plant response rating (0 to 100 scale), Morningglory: 0
[17]; [25]
  Morningglory plant response rating: 0
[17]; Postemergence, 500 g ai/ha
  Morningglory plant response rating: 10

## CCNC(=O)c1ccc(F)c(NC(=O)c2nc(C(C)(C)C)nn2CC)c1 [Compound 447]
[18]; [26]
  Velvetleaf plant response rating: 10
[18]; [27]
  Velvetleaf plant response rating: 30
[18]; [28]
  Velvetleaf plant response rating: 0
[18]; [29]
  Velvetleaf plant response rating: 0
[19]; [26]
  Barnyardgrass plant response rating: 25
[19]; [27]
  Barnyardgrass plant response rating: 70
[19]; [28]
  Barnyardgrass plant response rating: 20
[19]; [29]
  Barnyardgrass plant response rating: 60
[20]; [26]
  Crabgrass, Large plant response rating: 10
[20]; [27]
  Crabgrass, Large plant response rating: 25
[20]; [28]
  Crabgrass, Large plant response rating: 0
[20]; [29]
  Crabgrass, Large plant response rating: 35
[21]; [26]
  Foxtail, Giant plant response rating: 10
[21]; [27]
  Foxtail, Giant plant response rating: 40
[21]; [28]
  Foxtail, Giant plant response rating: 10
[21]; [29]
  Foxtail, Giant plant response rating: 45
[22]; [26]
  Morningglory plant response rating: 5
[22]; [27]
  Morningglory plant response rating: 10
[22]; [28]
  Morningglory plant response rating: 0
[22]; [29]
  Morningglory plant response rating: 0
[23]; [26]
  Pigweed plant response rating: 40
[23]; [27]
  Pigweed plant response rating: 50
[23]; [28]
  Pigweed plant response rating: 10
[23]; [29]
  Pigweed plant response rating: 50
